Test results as given in the NIST ThermoML archive (doi:10.1016/j.tca.2016.07.019).

Test: wn = mass fraction of the nth substance listed
Settings: 100 kPa, Liquid

O=C([O-])[C@@H]1CCCN1.[K+] [potassium L-prolinate] + O
mass density [kg/m3]
Settings	293.15 K	303.15 K	313.15 K	323.15 K
w1 = 0.01	1007.1	1004.3	1001.6	997.9
w1 = 0.04	1023.4	1019.6	1016.1	1009.5
w1 = 0.1	1047.2	1042.8	1037.9	1026.7
